Data reported in patent US20050054647A1, “New pharmaceutical combination” (priority 2002, published 2005).

How the values were obtained:
CC531 cells = experiment: Colorectal carcinoma model: CC531 cells implanted into the liver of Wag rats, tumor volume, metastasis and tolerability; assay type: in vivo; details: for Tumor Volume: % ± SD compared to untreated controls, CC531 liver tumor in Wag rats, treatment from 7th to 28th postoperative day; for tumor growth / primary tumor volume (in words): treatment day 7-28
Procedure: ombination of 1-(4-Chloroanilino)-4-(4-pyridylmethyl)phthalazine drochloride (ZK) and 3-pyridylmethyl-N-{4-[(2-amino-phenyl)-rbamoyl]benzyl}carbamate (MS) with Tamoxifen (TAM)
C cells CC531 were cultured in vitro (10th-15th passage) and implanted into e liver of adult (250 g) immuncompetent Wag rats (n/group=12). Between the venth and the 28th postoperative day the rats received either a placebo erapy, the conventional chemotherapy 5-fluoruracil (5FU, 10 mg/kg) or the llowing biomodulators alone or in combination: the VEGF receptor antagonist (4-Chloroanilino)-4-(4-pyridylmethyl)phthalazine hydrochloride (ZK) 0mg/kg), the histone deacetylase inhibitor 3-pyridylmethyl-N-{4-[(2-amino-enyl)carbamoyl]benzyl}carbamate (MS) dose and Tamoxifen (TAM) (TAM: g/kg KG i.p.). Apoptosis rate was assessed using a the TUNEL method on raformaldehyd fixed tumor material.

Row | melting point | SMILES | Tumor Volume (CC531 cells) [%] | tumor growth / primary tumor volume (in words) (CC531 cells)
1 | > 300 °C | Cl.Nc1ccc2c(Cc3ccncc3)nnc(Nc3ccc(Cl)cc3)c2c1 |  | 
2 | > 250 °C | CC(C)c1ccc(Nc2nnc(Cc3ccncc3)c3ccccc23)cc1.Cl.Cl |  | 
3 |  | Nc1ccccc1NC(=O)c1ccc(CNC(=O)OCc2cccnc2)cc1 [3-pyridylmethyl-N-{4-[(2-amino-phenyl)-carbamoyl]benzyl}-carbamate] | 80 ± 23 | 
4 |  | O=c1[nH]cc(F)c(=O)[nH]1 [5-Fluorouracil (5FU), 5-Fluorouracil, reference compound] | 85 ± 19 | did not reduce tumor growth
5 | 204 to 209 °C (dec.) | COC(=O)c1ccc(C(=O)NCc2ccc(C(=O)Nc3ccccc3N)cc2)cc1 [Example 11, N-(2-aminophenyl)-4-[N-(4-methoxycarbonylbenzoyl)aminomethyl]benzamide] |  | 
6 | 130 to 133 °C | Cc1ncsc1CCOC(=O)NCc1ccc(C(=O)Nc2ccccc2N)cc1 [Example 64, N-(2-aminophenyl)-4-[N-[2-(4-methylthiazol-5-yl)ethoxycarbonyl]aminomethyl]benzamide] |  | 
7 | 162 to 164 °C | Nc1ccccc1NC(=O)c1ccc(-n2cc(COc3ccc([N+](=O)[O-])cc3)oc2=O)cc1 [Example 137, N-(2-aminophenyl)-4-[5-(4-nitrophenoxy)methyl-1,3-oxazolin-2-on-3-yl]benzamide] |  | 
8 | 199 to 201 °C | Nc1ccccc1NC(=O)c1ccc(-n2cc(COc3cccnc3)oc2=O)cc1 [Example 139, N-(2-aminophenyl)-4-[5-(pyridin-3-yl)oxymethyl-1,3-oxazolin-2-on-3-yl]benzamide] |  | 
9 | > 270 °C | CC(=O)Nc1ccc(Nc2nnc(Cc3ccncc3)c3ccccc23)cc1 [Example A-11, 1-(4-Acetaminoanilino)-4-(4-pyridylmethyl)phthalazine] |  | 
10 |  | Clc1ccc(Nc2nnc(Cc3ccncc3)c3ccccc23)cc1.O=C(O)CCC(=O)O [K, (4-Chlorophenyl)[4-(4-pyridylmethyl)-phthalazin-1-yl]-ammonium hydrogen succinate] | 94 ± 20 | no significant reduction
11 |  | Nc1ccccc1NC(=O)c1ccc(CNC(=O)OCc2cccnc2)cc1 [MS, N-(2-aminophenyl)-4-[N-(pyridin-3-yl)methoxycarbonylaminomethyl]benzamide] |  | no significant reduction
12 |  | CC/C(=C(\c1ccccc1)c1ccc(OCCN(C)C)cc1)c1ccccc1 [Tamoxifen (TAM), (Z)-2-[p-(1,2-diphenyl-1-butenyl)phenoxy]-N,N-dimethylethylamine, reference compound] | 90 ± 10 | no significant reduction
